Experimental data from patent US20080171784A1, “Methods For the Stabilization of Atorvastatin” (ZENTIVA, A.S., priority 2003, published 2008).
Counter-ions that a name gives are not always drawn. Each block holds one molecule with its values, some of them ahead of it.

Assays:
Format in all cases: physicochemical
[1] = Stability tests of solid amorphous atorvastatin in different packages and oxygen partial pressures
Experimental: In order to make the carried-out experiments more precise, stability tests of solid amorphous atorvastatin and of several selected dosage forms were established. As to containers, polyethylene (PE) and an aluminium foil with a sealable PE layer (Al+PE) were used. Some of the stability data were determined in nitrogen atmosphere (N2) (with a partial pressure of oxygen of roughly 3 kPa).

[2] = Example 1: amorphous atorvastatin sealed in aluminium foil with oxygen absorbers, 80° C., 72 hr (HPLC)
Experimental: (§1) Amorphous atorvastatin (1 g) was sealed in a sealable aluminium foil together with the oxygen absorber Ageless® Z100 (Mitsubishi) or with the absorber of oxygen and carbon dioxide Ageless® E100 (Mitsubishi) and the sample was heated at 80° C. for 72 hr. The reference sample was prepared and heated in the same way without the use of absorbers.

[3] = Example 2: amorphous atorvastatin sealed in aluminium foil with oxygen absorbers, 40° C., 1.5 months (HPLC)
Experimental: as §1, with “40°” for “80°”, “1.5 months.” for “72 hr.”

[4] = Example 7: test of stability under reduced pressure
Experimental: A pure amorphous atorvastatin substance was close din a tempered box under air pressure of 5.5-7.5 kPa. The partial pressure of oxygen was estimated as 1.2-1.5 kPa
The measurement has given the following results:
For comparison, sample 0010903/18 was kept in a thermostat at 80° C. under normal atmospheric pressure, i.e. partial pressure of oxygen about 18 kPa for 160 hours.

[5] = Set of stress tests of atorvastatin (HPLC)
Experimental: The following experiments were carried out in order to determine the instability of atorvastatin. The purpose was to find out which factors lead to the degradation of the product. • 1. Set of stress tests. The stock solution of atorvastatin (2 ml) was gradually subjected to the following experiments: a. boil (24 hr) with 2 ml of 0.2 N hydrochloric acid, b. boil (24 hr) with 2 ml of 0.2 N acetic acid, c. boil (24 hr) with 2 ml of 0.2 N sodium hydroxide, d. boil (24 hr) with 2 ml of 4% hydrogen peroxide, e. boil (24 hr) with 2 ml of water, f. irradiation with UV radiation (5 hr), g. irradiation with visible light (24 hr), h. solid substance heated at 100° C. for 24 hr, i. solid substance subjected to UV radiation (5 hr), j. solid substance subjected to visible light (24 hr).

[6] = Oxidation of 1% atorvastatin solution in ethyl acetate-acetonitrile (1:1) at 40° C.
Experimental: In order to precisely determine the decomposition mechanism, the following experiments examining only the oxidative decomposition of atorvastatin were carried out. A recent publication/Pharmaceutical Development and Technology, 7(1), 1-32 (2002)/described a set of experiments which are suitable for the recognition of oxidation of substances and for the determination of its mechanism.
The following experiments were carried out:
a. oxidation of a 1% solution of atorvastatin in the system of ethyl acetate-acetonitrile (1:1) at 40° C. using a radical initiator (2,2′-azobiscyanopentanoic acid) at a pressure of 1 MPa of oxygen; b. oxidation of a 1% solution of atorvastatin in the system of ethyl acetate-acetonitrile (1:1) at 40° C. without a radical initiator; c. control experiment in the system of ethyl acetate-acetonitrile (1:1) at 40° C. using a radical initiator (2,2′-azobiscyanopentanoic acid) in an inert atmosphere of argon (the partial pressure of oxygen found as being about 1 kPa).

[7] = 80° C., 72 hr, oxygen absorber Ageless Z100
[8] = 80° C., 72 hr, oxygen and carbon dioxide absorber Ageless E100
[9] = 80° C., 72 hr, reference sample without absorbers
[10] = 40° C., 1.5 months, oxygen absorber Ageless Z100
[11] = 40° C., 1.5 months, oxygen and carbon dioxide absorber Ageless E100
[12] = 40° C., 1.5 months, reference sample without absorbers

Molecule: hemicalcium salt of (3R,5R) 7-[3-phenyl-4-phenylcarbamoyl-2-(4-fluorophenyl)-5-isopropylpyrrol-1-yl]-3,5-dihydroxyheptanoic acid [amorphous atorvastatin]
- Impurities ([1]; 0 months, entry): 0.21%
- Impurities ([1]; 3 months, 5 ° C., package 2x RE, PO 18 kPa): 0.39%
- Impurities ([1]; 3 months, 5 ° C., package PE + Al, PO 3 kPa (N2)): 0.34%
- Impurities ([1]; 3 months, 5 ° C., package PE + Al, PO 18 kPa): 0.34%
- Impurities ([1]; 3 months, 25 ° C., package 2x PE, PO 18 kPa): 0.77%
- Impurities ([1]; 3 months, 25 ° C., package PE + Al, PO 3 kPa (N2)): 0.43%
- Impurities ([1]; 3 months, 25 ° C., package PE + Al, PO 18 kPa): 0.63%
- Impurities ([1]; 6 months, 5 ° C., package 2x PE, PO 18 kPa): 0.83%
- Impurities ([1]; 6 months, 5 ° C., package PE + Al, PO 3 kPa (N2)): 0.44%
- Impurities ([1]; 6 months, 5 ° C., package PE + Al, PO 18 kPa): 0.71%
- Lactone of Atorvastatin [2, 7]: 0.19%
- Total Impurities [2, 7]: 0.64%
- Lactone of Atorvastatin [2, 8]: 0.14%
- Total Impurities [2, 8]: 0.60%
- Lactone of Atorvastatin [2, 9]: 0.33%
- Total Impurities [2, 9]: 1.32%
- Lactone of Atorvastatin ([2]; Initial): 0%
- Total Impurities ([2]; Initial): 0.49%
- Lactone of Atorvastatin [3, 10]: 0%
- Total Impurities [3, 10]: 0.36%
- Lactone of Atorvastatin [3, 11]: 0.06%
- Total Impurities [3, 11]: 0.46%
- Lactone of Atorvastatin [3, 12]: 0.22%
- Total Impurities [3, 12]: 1.55%
- Lactone of Atorvastatin ([3]; Initial): 0%
- Total Impurities ([3]; Initial): 0.49%
- Total Impurities ([4]; air pressure 5.5-7.5 kPa (PO 1.2-1.5 kPa), 55 hrs, 60-65 ° C.): 0.33%
- Total Impurities ([4]; air pressure 5.5-7.5 kPa (PO 1.2-1.5 kPa), 160 hrs, 80-82 ° C.): 0.37%
- Total Impurities ([4]; air pressure 5.5-7.5 kPa (PO 1.2-1.5 kPa), 23 days, 20-25 ° C.): 0.29%
- Total Impurities ([4]; air pressure 5.5-7.5 kPa (PO 1.2-1.5 kPa), 42 days, 40-42 ° C.): 0.35%
- Total Impurities ([4]; normal atmospheric pressure, PO about 18 kPa, 80° C., 160 hours): 1.92%

- Content of Atorvastatin ([5]; 5 hr under UV in water): 64.3%
- Content of Atorvastatin ([5]; solid substance 5 hr, UV): 99.3%
- Content of Atorvastatin ([5]; solid substance 24 hr, 100° C.): 96.3%
- Content of Atorvastatin ([5]; solid substance 24 hr, visible light): 96.5%
- Content of Atorvastatin ([5]; solution, 24 hr in the light (visible)): 104.5%
- Content of Atorvastatin ([5]; stock solution, 24 hr boil in 0.1 N AcOH): 83.2%
- Content of Atorvastatin ([5]; stock solution, 24 hr boil in 0.1 N HCl): 2.1%
- Content of Atorvastatin ([5]; stock solution, 24 hr boil in 0.1 N NaOH): 72.0%
- Content of Atorvastatin ([5]; stock solution, 24 hr boil in 2% H2O2): 54.8%
- Content of Atorvastatin ([5]; stock solution, 24 hr boil in water): 88.4%
- Impurities ([6]; 0 hours, entry sample): 0.49%
- Impurities ([6]; 24 hours, radical initiator no, PO 1 MPa, 40° C.): 9.27%
- Impurities ([6]; 24 hours, radical initiator yes, PO 0.001 MPa (argon), 40° C.): 0.98%
- Impurities ([6]; 24 hours, radical initiator yes, PO 1 MPa, 40° C.): 6.42%
- Impurities ([6]; 48 hours, radical initiator yes, PO 0.001 MPa (argon), 40° C.): 1.38%
- Impurities ([6]; 48 hours, radical initiator yes, PO 1 MPa, 40° C.): 24.37%
- Impurities ([6]; 72 hours, radical initiator yes, PO 1 MPa, 40° C.): 30.93%
Molecule: CC(C)c1c(C(=O)Nc2ccccc2)c(-c2ccccc2)c(-c2ccc(F)cc2)n1CC[C@@H](O)C[C@@H](O)CC(=O)O [atorvastatin, hemicalcium salt of (3R,5R) 7-[3-phenyl-4-phenylcarbamoyl-2-(4-fluorophenyl)-5-isopropylpyrrol-1-yl]-3,5-dihydroxyheptanoic acid]
